# In PMC9267128, “New 2-[(4-Amino-6-N-substituted-1,3,5-triazin-2-yl)methylthio]-N-(imidazolidin-2-ylidene)-4-chloro-5-methylbenzenesulfonamide Derivatives, Design, Synthesis and Anticancer Evaluation” (International Journal of Molecular Sciences, 2022):
# Experiments:
# HCT-116 (colon cancer) = experiment: MTT cell viability assay, HCT-116; format: cell-based, human; conditions: Homo sapiens, HCT-116, 72 h, MTT assay, 72 h of incubation
# Method: (§1) Analysis was performed using an MTT assay after 72 h of incubation.
# (§2) All chemicals, if not stated otherwise, were obtained from Sigma–Aldrich (St. Louis, MO, USA). The HCT-116 cell line was purchased from ATCC (ATCC-No: CCL-247), while the MCF-7, HeLa and HaCaT cell lines were purchased from Cell Lines Services (Eppelheim, Germany). Cells were cultured in Dulbecco’s modified Eagle’s medium (DMEM) supplemented with 10% fetal bovine serum, 2 mM glutamine, 100 units/mL penicillin and 100 µg/mL streptomycin. Cultures were maintained in a humidified atmosphere with 5% carbon dioxide at 37 °C in an incubator (Heraceus, HeraCell).
# (§3) Cell viability was examined using the MTT [3-(4,5-dimethylthiazol-2-yl)-2,5-diphenyltetrazolium bromide] assay. Cells were seeded in 96-well plates at a density of 3 × 10^3 cells/well and treated for 72 h with the tested compounds in the concentration range of 1–100 µM. Then, MTT (0.5 mg/mL) was added to the medium and cells were further incubated for 2 h at 37 °C. In the next stage, cells were lysed with DMSO and the absorbance of the formazan solution was measured at 550 nm with a plate reader (1420 multilabel counter, Victor, Jügesheim, Germany). The experiment was performed in triplicate. Values are expressed as the mean ± SD of at least three independent experiments.
# [1] = system: HaCaT (human keratinocyte cell line); experiment: MTT cell viability assay, non-cancerous HaCaT; format: cell-based; conditions: Homo sapiens, HaCaT, 72 h, 72 h of incubation, non-cancerous keratinocytes
# Method: (§4) Compounds 20–162 were evaluated in vitro for their effects on the viability of three cancer cell lines: HCT-116 (colon cancer), MCF-7 (breast cancer) and HeLa (cervical cancer), as well as the non-cancerous keratinocyte cell line (HaCaT). […] Analysis was performed using an MTT assay after 72 h of incubation.
# as §2
# as §3, with “experiments. Cisplatin was used as a positive control.” for “experiments.”
# HeLa (cervical cancer) = experiment: MTT cell viability assay, HeLa; format: cell-based, human; conditions: Homo sapiens, HeLa; MTT assay, 72 h of incubation
# Method: as §1, §2, §3
# MCF-7 (breast cancer) = experiment: MTT cell viability assay, MCF-7; format: cell-based, human; conditions: Homo sapiens, MCF7, 72 h, MTT assay, 72 h of incubation
# Method: as §4, §2
# as §3, with “experiments. Cisplatin was used as a positive control.” for “experiments.”
SMILES,IC50 (HCT-116 (colon cancer)) [µM],IC50 [1] [µM],IC50 (HeLa (cervical cancer)) [µM],IC50 (MCF-7 (breast cancer)) [µM]
Cc1cc(S(=O)(=O)N=C2NCCN2Cc2cccc3ccccc23)c(SCc2nc(N)nc(N3CCN(c4ccc(C(F)(F)F)cc4)CC3)n2)cc1Cl [Compound 78],19.5 ± 0.6,280 ± 14,130 ± 8,11 ± 0.5
Cc1cc(S(=O)(=O)N=C2NCCN2Cc2cccc3ccccc23)c(SCc2nc(N)nc(N3CCN(Cc4ccccc4)CC3)n2)cc1Cl [Compound 81],8.4 ± 0.3,240 ± 12,63 ± 1,8 ± 0.5
Cc1cc(S(=O)(=O)N=C2NCCN2Cc2ccc(F)cc2)c(SCc2nc(N)nc(N3CCOCC3)n2)cc1Cl [Compound 82],19 ± 0.8,54 ± 2,30 ± 1,12 ± 0.1
Cc1cc(S(=O)(=O)N=C2NCCN2Cc2ccc(F)cc2)c(SCc2nc(N)nc(N3CCc4ccccc43)n2)cc1Cl [Compound 83],10 ± 0.5,32 ± 1,12 ± 3,14 ± 1
Cc1cc(S(=O)(=O)N=C2NCCN2Cc2ccc(F)cc2)c(SCc2nc(N)nc(N3CCCc4ccccc43)n2)cc1Cl [Compound 84],9 ± 0.5,27 ± 1,15 ± 0.6,7 ± 0.1
Cc1cc(S(=O)(=O)N=C2NCCN2Cc2ccc(F)cc2)c(SCc2nc(N)nc(Nc3ccccc3)n2)cc1Cl [Compound 85],15 ± 0.5,38 ± 1,21 ± 4,23 ± 1
Cc1cc(S(=O)(=O)N=C2NCCN2Cc2ccc(F)cc2)c(SCc2nc(N)nc(Nc3ccc(F)cc3)n2)cc1Cl [Compound 86],13 ± 0.5,35 ± 2,16 ± 0.2,15 ± 0.2
Cc1cc(S(=O)(=O)N=C2NCCN2Cc2ccc(F)cc2)c(SCc2nc(N)nc(Nc3ccc(C(F)(F)F)cc3)n2)cc1Cl [Compound 87],10 ± 0.4,34 ± 1,15 ± 1,7 ± 0.3
COc1ccc(Nc2nc(N)nc(CSc3cc(Cl)c(C)cc3S(=O)(=O)N=C3NCCN3Cc3ccc(F)cc3)n2)cc1 [Compound 88],17 ± 0.5,43 ± 2,25 ± 2,31 ± 1
Cc1cc(S(=O)(=O)N=C2NCCN2Cc2ccc(F)cc2)c(SCc2nc(N)nc(N(C)c3ccccc3)n2)cc1Cl [Compound 89],14 ± 0.7,31 ± 1,17 ± 0.6,18 ± 1
Cc1cc(S(=O)(=O)N=C2NCCN2Cc2ccc(F)cc2)c(SCc2nc(N)nc(N(C)c3ccc(Cl)cc3)n2)cc1Cl [Compound 90],12 ± 0.2,30 ± 2,15 ± 0.6,17 ± 1
Cc1cc(S(=O)(=O)N=C2NCCN2Cc2ccc(F)cc2)c(SCc2nc(N)nc(N3CCN(C)CC3)n2)cc1Cl [Compound 91],20 ± 1,54 ± 2,34 ± 2,13 ± 0.4
Cc1cc(S(=O)(=O)N=C2NCCN2Cc2ccc(F)cc2)c(SCc2nc(N)nc(N3CCN(c4ccccc4)CC3)n2)cc1Cl [Compound 92],7 ± 0.3,18 ± 1,8 ± 0.5,8 ± 0.4
Cc1cc(S(=O)(=O)N=C2NCCN2Cc2ccc(F)cc2)c(SCc2nc(N)nc(N3CCN(c4ccc(F)cc4)CC3)n2)cc1Cl [Compound 93],7 ± 0.3,18 ± 1,8 ± 0.4,7 ± 0.5
Cc1cc(S(=O)(=O)N=C2NCCN2Cc2ccc(F)cc2)c(SCc2nc(N)nc(N3CCN(c4ccccc4F)CC3)n2)cc1Cl [Compound 94],9 ± 0.2,25 ± 1,12 ± 1,14 ± 0.5
Cc1cc(S(=O)(=O)N=C2NCCN2Cc2ccc(F)cc2)c(SCc2nc(N)nc(N3CCN(c4ccc(C(F)(F)F)cc4)CC3)n2)cc1Cl [Compound 95],7 ± 0.3,18 ± 1,8 ± 0.4,7 ± 0.1
Cc1cc(S(=O)(=O)N=C2NCCN2Cc2ccc(F)cc2)c(SCc2nc(N)nc(N3CCN(c4ccc(Cl)cc4)CC3)n2)cc1Cl [Compound 96],6 ± 0.3,22 ± 1,9 ± 0.3,6 ± 0.2
